# What was measured:
# [1] = Fluorescence lifetime measurement; assay type: physicochemical
# Experimental: (§1) ^1H NMR and ^13C NMR spectra were taken on a 400 MHz Varian Unity Inova spectrophotometer instrument. ^1H and ^13C NMR spectra were recorded in CDCl3, and chemical shifts (5) are given in ppm relative to solvent peaks (at 7.24 ppm for ^1H spectra and at 77.3 for ^13C spectra) as internal standard. UV spectra were taken on a Hewlett-Packard 8452A Diode Array UV-visible spectrophotometer. Fluorescence spectra were recorded on a Spex Fluorolog 1681 0.22 m steady-state fluorometer. Fluorescence quantum yields of BODIPY dyes and polymers were measured in methylene chloride and calculated by using fluorescein excited at 490 nm in 0.1 N NaOH as the reference (its quantum efficiency of 85%). Fluorescence lifetimes were measured on a GL-3300 Nitrogen Laser laserstrobe PTI instrument and analyzed using FeliX32 software.
# ^1H NMR and ^13C NMR spectra were taken on a 400 MHz Varian Unity Inova spectrophotometer instrument. ^1H and ^13C NMR spectra were recorded in CDCl3, and chemical shifts (δ) are given in ppm relative to solvent peaks (^1H, δ 7.26; ^13C, δ 77.3) as internal standard. UV spectra were taken on a Hewlett-Packard 8452A Diode Array UV-visible spectrophotometer. Fluorescence spectra were recorded on a Spex Fluorolog 1681 0.22 m steady-state fluorometer. Fluorescence quantum yields of BODIPY dyes and polymers were measured in methylene chloride and calculated by using fluorescein exCIted at 490 nm in 0.1 N NaOH as the reference (quantum effiCIency, cPn=85%). Fluorescence lifetimes were measured on a 010-3300 Nitrogen Laser laserstrobe PTI instrument and analyzed using FeliX32 software. Molecular weights of the polymers were determined by gel permeation chromatography (OPC) by using a Waters AssoCIates model 6000A liquid chromatograph. Three American Polymer Standards Corp. ultrastyragel columns in series with porosity indices of 103, 104, and 105 A were used and housed in an oven thermostatted at 30° C. The mobile phase was HPLC grade THF which was filtered and degassed by vacuum filtration through a 0.5, urn fluoropore filter prior to use. The polymers were detected by a Waters Model 440 ultraviolet absorbance detector at a wavelength of 254 nm and a Waters Model 2410 refractive index detector. Molecular weights were determined relative to polystyrene standards.
# [2] = UV-visible absorption and fluorescence spectra, fluorescence quantum yields in solution; assay type: physicochemical
# Experimental: ^1H NMR and ^13C NMR spectra were taken on a 400 MHz Varian Unity Inova spectrophotometer instrument. ^1H and ^13C NMR spectra were recorded in CDCl3, chemical shifts (δ) are given in ppm relative to solvent peaks (1H: δ 7.26; 13C: δ 77.3) as internal standard. UV spectra were taken on a Hewlett Packard 8452A Diode Array UV-visible spectrophotometer. Fluorescence spectra were recorded on a Spex Fluorolog 1681 0.22 m steady-state fluorometer. Fluorescence quantum yields of BODIPY dyes and polymers were measured in methylene chloride and DMF, and calculated by using fluorescein excited at 490 nm in 0.1 N NaOH as the reference absolute quantum efficiency (φn=85%). Molecular weights of the polymers were determined by gel permeation chromatography (“GPC”) by using a Waters Associates Model 6000A liquid chromatograph. Three American Polymer Standards Corp. Ultrastyragel columns in series with porosity indices of 10^3, 10^4, and 10^5 Å were used and housed in an oven thermostated at 30° C. Mobile phase was HPLC grade THF which was filtered and degassed by vacuum filtration through a 0.5 μm fluoropore filter prior to use. The polymers were detected by a Waters Model 440 ultraviolet absorbance detector at a wavelength of 254 nm and a Waters Model 2410 refractive index detector. Molecular weights were measured relative to polystyrene standards. An Enraf Nonius CAD-4 X-Ray diffractometer was used in the crystal structure determination. The windows program WinGX was used as the interface for the solution and refinement of the model. The data were first reduced and corrected for absorption using the psi-scans, and then solved using the program SIR2004. The model was refined using SHELXL97.
# as §1
# ^1H NMR and ^13C NMR spectra were taken on a 400 MHz Varian Unity Inova spectrophotometer instrument. ^1H and ^13C NMR spectra were recorded in CDCl3, chemical shifts (δ) are given in ppm relative to solvent peaks (^1H: δ 7.26; ^13C: δ 77.3) as internal standard. UV spectra were taken on a Hewlett Packard 8452A Diode Array UV-visible spectrophotometer. Fluorescence spectra were recorded on a Spex Fluorolog 1681 0.22 m steady-state fluorometer. Fluorescence quantum yields of BODIPY dyes and polymers were measured in methylene chloride and DMF, and calculated by using fluorescein excited at 490 nm in 0.1 N NaOH as the reference quantum efficiency (φn=85%).^30,31 Molecular weights of the polymers were determined by gel permeation chromatography (GPC) by using a Waters Associates Model 6000A liquid chromatograph. Three American Polymer Standards Corp. Ultrastyragel columns in series with porosity indices of 10^3, 10^4, and 10^5 Å were used and housed in an oven thermostated at 30° C. Mobile phase was HPLC grade THF which was filtered and degassed by vacuum filtration through a 0.5 μm fluoropore filter prior to use. The polymers were detected by a Waters Model 440 ultraviolet absorbance detector at a wavelength of 254 nm and a Waters Model 2410 refractive index detector. Molecular weights were measured relative to polystyrene standards. […]
# [3] = methylene chloride solution (Table 9, Example 13)
# [4] = CH2Cl2 solution (Table 2, Example 2)
# [5] = CH2Cl2 solution, fluorescein reference (Example 2)
# [6] = DMF solution (Table 3, Example 2)
# [7] = DMF solution, fluorescein reference (Example 2)
# [8] = methylene chloride solution (Table 10, Example 14)
# [9] = methylene chloride solution, fluorescein standard (Table 10, Example 14)
Structure (SMILES),"Fluorescence lifetime [1, 3]","Absorption maxima [2, 3]","Emission maxima [2, 3]","Stokes shift [2, 3]","Absorption maxima [2, 4]","Emission maxima [2, 4]","Quantum yield [2, 5]","Absorption maxima [2, 6]","Emission maxima [2, 6]","Quantum yield [2, 7]","Fluorescence lifetime [1, 8]","Absorption maxima [2, 8]","Emission maxima [2, 8]","Quantum yield [2, 9]"
C#CC1=C(C)C2=C(c3cc(OCCCCCCCCCCCC)c(OCCCCCCCCCCCC)c(OCCCCCCCCCCCC)c3)c3c(C)c(C#C)c(C)n3[B-](F)(F)[N+]2=C1C [Compound 6c],3.0 ns,541 nm,553 nm,12 nm,,,,,,,,,,
"COc1cc(C2=C3C(C)=C(I)C(C)=[N+]3[B-](F)(F)n3c(C)c(I)c(C)c32)cc(OC)c1OC [Compound 10, 4,4-Difluoro-8-(3,4,5-trimethoxyphenyl)-2,6-diiodo-1,3,5,7-tetramethyl-4-bora-3a,4a-diaza-s-indacene]",,,,,535 nm,549 nm,7.52%,534 nm,551 nm,3.4%,,,,
CCCCCCCCCCCCOc1ccc(C2=C3C(C)=CC(C)=[N+]3[B-](F)(F)n3c(C)cc(C)c32)cc1OCCCCCCCCCCCC [Compound 3b],4.1 ns,502 nm,510 nm,8 nm,,,,,,,4.1 ns,502 nm,511 nm,81%
CCCCCCCCCCCCOc1ccc(C2=C3C(C)=C(C#C[Si](C)(C)C)C(C)=[N+]3[B-](F)(F)n3c(C)c(C#C[Si](C)(C)C)c(C)c32)cc1 [Compound 5a],4.4 ns,554 nm,569 nm,15 nm,,,,,,,4.5 ns,553 nm,569 nm,71%
"COc1cc(C2=C3C(C)=CC(C)=[N+]3[B-](F)(F)n3c(C)cc(C)c32)cc(OC)c1OC [Compound 9, 4,4-Difluoro-8-(3,4,5-trimethoxyphenyl)-1,3,5,7-tetramethyl-4-bora-3a,4a-diaza-s-indacene]",,,,,502 nm,511 nm,71.5%,501 nm,511 nm,55.3%,,,,

# Now from value to compound:
"Fluorescence lifetime [1, 3]","Absorption maxima [2, 3]","Emission maxima [2, 3]","Stokes shift [2, 3]","Absorption maxima [2, 4]","Emission maxima [2, 4]","Quantum yield [2, 5]","Absorption maxima [2, 6]","Emission maxima [2, 6]","Quantum yield [2, 7]","Fluorescence lifetime [1, 8]","Absorption maxima [2, 8]","Emission maxima [2, 8]","Quantum yield [2, 9]",Structure (SMILES)
,,,,501 nm,510 nm,86.7%,502 nm,510 nm,73.8%,,,,,"CC1=CC(C)=[N+]2C1=C(c1c(C)cccc1C)c1c(C)cc(C)n1[B-]2(F)F [Compound 18, 4,4-Difluoro-8-(2,6-dimethylphenyl)-1,3,5,7-tetramethyl-4-bora-3a,4a-diaza-s-indacene]"
,,,,535 nm,549 nm,8.64%,536 nm,552 nm,4.4%,,,,,"CC1=C(I)C(C)=[N+]2C1=C(c1c(C)cccc1C)c1c(C)c(I)c(C)n1[B-]2(F)F [Compound 19, 4,4-Difluoro-8-(2,6-dimethylphenyl)-2,6-diiodo-1,3,5,7-tetramethyl-4-bora-3a,4a-diaza-s-indacene]"
,,,,500 nm,510 nm,80.1%,500 nm,510 nm,71.6%,,,,,"COc1ccc(C2=C3C(C)=CC(C)=[N+]3[B-](F)(F)n3c(C)cc(C)c32)cc1 [Compound 14, 4,4-Difluoro-8-(4-methoxyphenyl)-1,3,5,7-tetramethyl-4-bora-3a,4a-diaza-s-indacene]"
,,,,533 nm,548 nm,5.72%,533 nm,551 nm,4.9%,,,,,"COc1ccc(C2=C3C(C)=C(I)C(C)=[N+]3[B-](F)(F)n3c(C)c(I)c(C)c32)cc1 [Compound 15, 4,4-Difluoro-8-(4-methoxyphenyl)-2,6-diiodo-1,3,5,7-tetramethyl-4-bora-3a, 4a-diaza-s-indacene]"

# — patent US9623123B2, “Fluorescent conjugated polymers with a bodipy-based backbone and uses thereof” (Michigan Technological University, priority 2008, dated 2017)
